One may read the IC50 as the midpoint of a concentration-inhibition curve.

The values that follow come from patent US5922759A, “Butenolide endothelin antagonists” (Warner-Lambert Company, priority 1997, dated 1999).

Where two headings read alike, the source gives them in different places. Where a SMILES comes first, the peptide text is derived from it. Where no end group is shown, it is not given here. [ ]: non-standard residue; d: D form.

Data set [1] relates to cerebral vasospasm. The note with it: rat, cited from earlier work.
Data set [2] has as its system cerebral vasospasm. The note with it: rabbit; cited from earlier work.
The test system of the next data set is ETA. To be noted: mouse endotoxic shock; cited from earlier work.
Data set [3] addresses T1, ETA (rabbit femoral artery) (Oryctolagus cuniculus, UniProt A5A8K3).
T1 construct: Femoral and pulmonary arteries were isolated, cleaned of connective tissue, and cut into 4-mm rings; from tissue; host or cells: endothelium-denuded femoral artery rings of male New Zealand rabbits
T1 sequence (A5A8K3 21-427): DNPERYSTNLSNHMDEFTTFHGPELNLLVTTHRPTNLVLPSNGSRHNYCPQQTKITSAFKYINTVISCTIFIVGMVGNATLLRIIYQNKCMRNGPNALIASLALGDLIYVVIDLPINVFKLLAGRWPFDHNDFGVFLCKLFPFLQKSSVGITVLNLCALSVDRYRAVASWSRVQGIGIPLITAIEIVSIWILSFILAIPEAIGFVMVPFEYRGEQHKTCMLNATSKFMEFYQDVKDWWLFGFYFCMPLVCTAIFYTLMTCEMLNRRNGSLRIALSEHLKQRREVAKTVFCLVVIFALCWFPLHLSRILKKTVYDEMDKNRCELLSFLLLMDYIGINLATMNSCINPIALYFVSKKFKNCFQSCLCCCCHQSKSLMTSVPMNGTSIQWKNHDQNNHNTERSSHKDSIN
Briefly: Antagonism of ET-1 stimulated vasoconstriction (VERA-A) in the rabbit femoral artery. To be noted: ET-1 agonist, antagonist added 30 minutes prior. As for the experimental part:
Male New Zealand rabbits were killed by cervical dislocation and exsanguination. Femoral and pulmonary arteries were isolated, cleaned of connective tissue, and cut into 4-mm rings. The endothelium was denuded by placing the rings over hypodermic tubing (32 gauge for femoral rings and 28 gauge for pulmonary rings, Small Parts, Inc, Miami, Fla.) and gently rolling them. […] Resting tension was adjusted to 3.0 g for femoral and 4.0 g pulmonary arteries; the rings were left for 90 minutes to equilibrate.

For the next data set, the target named is T2, endothelin receptor ETA (Homo sapiens, UniProt P25101).
T2 sequence (P25101 21-427): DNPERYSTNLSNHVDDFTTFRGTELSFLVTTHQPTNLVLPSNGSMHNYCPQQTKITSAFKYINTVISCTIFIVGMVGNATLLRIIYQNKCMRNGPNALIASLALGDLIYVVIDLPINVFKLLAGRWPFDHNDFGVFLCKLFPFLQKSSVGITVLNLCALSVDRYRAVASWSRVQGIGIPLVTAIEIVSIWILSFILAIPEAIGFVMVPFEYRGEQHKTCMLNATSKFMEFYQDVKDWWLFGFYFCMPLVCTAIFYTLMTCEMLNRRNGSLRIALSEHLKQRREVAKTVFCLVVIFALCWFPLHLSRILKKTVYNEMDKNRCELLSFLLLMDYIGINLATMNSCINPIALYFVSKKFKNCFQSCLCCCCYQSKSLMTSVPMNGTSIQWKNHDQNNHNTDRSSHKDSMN
Format: binding. The note with it: Human cloned receptor data (footnote c); read-out: ERBA-A IC50.

The target of the next data set is T3, human ETB receptor (Homo sapiens, UniProt P24530).
T3 construct: expressed in transfected cells; host or cells: CHO-K1
T3 sequence (P24530 27-442): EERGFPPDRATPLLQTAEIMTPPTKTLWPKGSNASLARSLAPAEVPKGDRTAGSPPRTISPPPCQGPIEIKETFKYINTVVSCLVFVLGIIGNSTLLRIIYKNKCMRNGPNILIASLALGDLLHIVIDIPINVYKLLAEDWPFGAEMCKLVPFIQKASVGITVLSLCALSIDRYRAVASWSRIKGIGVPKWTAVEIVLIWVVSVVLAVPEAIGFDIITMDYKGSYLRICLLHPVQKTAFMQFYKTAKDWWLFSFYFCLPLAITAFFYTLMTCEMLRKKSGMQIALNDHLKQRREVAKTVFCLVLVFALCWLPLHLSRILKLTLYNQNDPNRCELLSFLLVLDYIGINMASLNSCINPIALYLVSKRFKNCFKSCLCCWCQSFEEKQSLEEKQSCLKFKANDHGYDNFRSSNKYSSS
Format: binding, human (method text also: rat cerebellar membranes). To be noted: Human cloned receptor data (footnote c); read-out: ERBA-B IC50. An excerpt: The compounds of Formula I are valuable antagonists of endothelin.
ENDOTHELIN RECEPTOR BINDING ASSAY-B (ERBA-B) [^125 I]-ET-1 BINDING IN RAT CEREBELLAR MEMBRANES
materials and Terms Used:
Count filters for radioactivity in gamma counter.
The above process has also been modified by using human recombinant CHO-K1 cells.
The tissue used for human ETB was recombinant human ETB receptor expressed in CHO-K1 cells (chinese hamster ovary cells). The gene for human ETB receptor was cloned and inserted into the pRc-CMW expression vector, then transfected into CHO-K1 cells by electroporation. For binding assays, membranes (0.7 mg protein) of CHO-K1 cells expressing recombinant human ETB receptor were used.
^c Human cloned receptor data

In the next data set the test system is brain. To be noted: new model of local ischemia in the brain; cited from earlier work.
Another data set deals with central nervous system. To be noted: intracerebroventricular, rats; cited from earlier work.
The subject of data set [4] is basilar artery vasoconstriction. To be noted: canine two-hemorrhage model, after 7 days; cited from earlier work.

With `CC(C)C[C@@H]1NC(=O)[C@@H](C(C)C)NC(=O)[C@@H]2CCCN2C(=O)[C@@H](CC(=O)O)NC(=O)[C@@H](Cc2c[nH]c3ccccc23)NC1=O` [BQ-123] (cyclo(L[dW][dD]P[dV])), the “effect on early cerebral vasospasm following SAH” value in the data set on cerebral vasospasm [1] and with cerebral vasospasm [2] was “prevents early cerebral vasospasm” in each case. Further, the survival rate result in the data set with ETA was “significantly increased the survival rate”.
On to `COc1ccc(C2(OC(=O)N[C@@H](C)c3ccccc3)OC(=O)C(c3ccc4c(c3)OCO4)=C2Cc2ccccc2)cc1` (stereo partly shown) [Example 1, (1-Phenyl-ethyl)-carbamic acid-4-benzo[1,3]dioxol-5-yl-3-benzyl-2-(4-methoxy-phenyl)-5-oxo-2,5-dihydro-furan-2-yl ester], for which, in [3], the “VERA-A pA2” value is on record as 6.1.
Regarding `COc1ccc(C2(OC(=O)N[C@@H](C)c3cccc4ccccc34)OC(=O)C(c3ccc4c(c3)OCO4)=C2Cc2cc(OC)c(OC)c(OC)c2)cc1` (stereo partly shown) [Example 2, (1-Naphthalen-1-yl-ethyl)-carbamic acid-4-benzo[1,3]dioxol-5-yl-2-(4-methoxy-phenyl)-5-oxo-3-(3,4,5-trimethoxy-benzyl)-2,5-dihydro-furan-2-yl ester], the IC50 at endothelin receptor ETA came out at 0.001 µM.
Turning to `CCOC(=O)CNC(=O)OC1(c2ccc(OC)cc2)OC(=O)C(c2ccc3c(c2)OCO3)=C1Cc1cc(OC)c(OC)c(OC)c1` (stereo not shown) [Example 3, [4-Ben zo[1.3]dioxol-5-yl-2-(4-methoxy-phenyl)-5-oxo-3-(3,4,5-trimethoxy-benzyl)-2,5-dihydro-furan-2-yloxycarbonylamino]-acetic acid ethyl ester], in [3] (read-out: VERA-A pA2 (converted)), the Kb is 0.0501 µM. Besides, the IC50 at endothelin receptor ETA worked out at 0.00035 µM; at human ETB receptor, 1.8 µM.
Take `COc1cccc(Oc2c(NS(=O)(=O)c3ccc(C(C)(C)C)cc3)ncnc2OCCO)c1` [Ro 46-2005]: the “effect on systemic arterial blood pressure” value in the data set with cerebral vasospasm [1] (SAH) is “no significant effect on systemic arterial blood pressure”. Further, the “effect on early cerebral vasospasm following SAH” value with cerebral vasospasm [1] is on record as “prevent early cerebral vasospasm”.
As to “ET-1: a potent vasoconstrictor, is a 21 amino acid bicyclic peptide (CSCSSLMDKECVYFCHLDIIW; ends and bridges not checked; also: bicyclic peptide; UniProt P05305 53-73, looked up)”, the lesion development entry in the data set on brain is “induced lesion development”. Moreover, the behavioral effects result in the data set on central nervous system is recorded as “evoke several behavioral effects”.
With FR 139317, in data set [4], the “inhibition of vasoconstriction of the basilar artery” value was “significantly inhibited the vasoconstriction of the basilar artery after 7 days”.
